Reference: patent US6362181B1, “Isoquinolones” (Warner-Lambert Company, priority 1996, dated 2002)
Values after ≈ are worked out from the molar mass of the structure shown. Read-outs that look alike come from different tables or passages of the source.

How the values were obtained:
E. coli gyrase = molecular target: T1, E. coli gyrase (Escherichia coli, UniProt P0AES4+P0AES6); assay: DNA gyrase supercoiling inhibition assay; format: biochemical
T1 construct: purchased Lucent, Ltd., Leicester, UK
T1 sequence (P0AES4 whole entry, one chain of several): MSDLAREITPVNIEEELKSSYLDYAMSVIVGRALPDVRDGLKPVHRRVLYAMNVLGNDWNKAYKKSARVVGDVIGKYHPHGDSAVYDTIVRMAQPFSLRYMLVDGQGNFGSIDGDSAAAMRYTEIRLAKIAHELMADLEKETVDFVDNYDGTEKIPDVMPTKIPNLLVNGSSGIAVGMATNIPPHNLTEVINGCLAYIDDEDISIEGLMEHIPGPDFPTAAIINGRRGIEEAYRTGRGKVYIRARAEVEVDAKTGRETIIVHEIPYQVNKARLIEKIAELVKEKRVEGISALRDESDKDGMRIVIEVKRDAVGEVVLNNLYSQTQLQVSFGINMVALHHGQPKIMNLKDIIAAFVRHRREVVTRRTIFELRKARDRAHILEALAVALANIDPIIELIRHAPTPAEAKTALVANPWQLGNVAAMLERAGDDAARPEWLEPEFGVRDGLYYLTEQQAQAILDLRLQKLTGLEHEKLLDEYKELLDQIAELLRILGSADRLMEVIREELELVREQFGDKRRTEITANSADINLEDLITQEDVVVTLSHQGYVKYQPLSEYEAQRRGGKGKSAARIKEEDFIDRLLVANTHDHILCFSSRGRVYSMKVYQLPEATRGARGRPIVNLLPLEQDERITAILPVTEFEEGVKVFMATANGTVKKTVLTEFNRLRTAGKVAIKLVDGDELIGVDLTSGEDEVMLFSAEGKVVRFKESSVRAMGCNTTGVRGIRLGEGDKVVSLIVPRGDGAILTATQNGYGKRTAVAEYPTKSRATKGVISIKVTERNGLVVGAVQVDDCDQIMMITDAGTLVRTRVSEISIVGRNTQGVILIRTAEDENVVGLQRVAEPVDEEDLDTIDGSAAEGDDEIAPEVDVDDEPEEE
Protocol: The effects of test agents on the activity of DNA gyrase was determined by the supercoiling inhibition assay, following reaction conditions recommended by the enzyme supplier (Lucent, Ltd., Leicester, UK), as follows. Reactions were performed in buffer G (35 mM Tris-HCL (pH 7.5), 24 mM KCl, 4 mM MgCl2, 2 mM DTT, 1.8 mM spermidine, 1 mM ATP, 0.1 mg/mL bovine serum albumin). 0.25 μg of relaxed plasmid pBR322 (Lucent, Ltd., Leicester, UK) was reacted with 1 U E. coli gyrase (Lucent, Ltd., Leicester, UK), in the absence or presence of drugs, for 30 minutes at 37° C. Reactions were stopped by the addition of SDS and proteinase K to respective final concentrations of 1% and 0.5 mg/mL. After an additional 30 minutes at 37° C., one-tenth volume of 10×loading buffer (0.3% bromophenol blue, 16% Ficoll, 10 mM Na2HPO4) was added, and reactions were loaded onto agarose gels and electrophoresed as described above for intercalation assays. The concentration of drug inhibiting 50% of the supercoiling activity of DNA gyrase is given as an IC50 and recorded in Table 2.

[1] = Mammalian cell cytotoxicity, colony formation; format: cell-based; details: Chinese hamster
Protocol: Mammalian Cell Cytotoxicity
The cells were grown overnight and treated with drug for 3 hours at 37° C., at which time the compound containing media was replaced with fresh media. The cells were then incubated for 5 days and examined for colony formation.

E. coli topoisomerase IV = molecular target: T2, E. coli topoisomerase IV (Escherichia coli, UniProt P0AFI2+P20083); assay: Topoisomerase IV k-DNA decatenation assay; format: biochemical
T2 construct: made in house; host or cells: E. coli overexpressing strains
T2 sequence (P0AFI2 whole entry): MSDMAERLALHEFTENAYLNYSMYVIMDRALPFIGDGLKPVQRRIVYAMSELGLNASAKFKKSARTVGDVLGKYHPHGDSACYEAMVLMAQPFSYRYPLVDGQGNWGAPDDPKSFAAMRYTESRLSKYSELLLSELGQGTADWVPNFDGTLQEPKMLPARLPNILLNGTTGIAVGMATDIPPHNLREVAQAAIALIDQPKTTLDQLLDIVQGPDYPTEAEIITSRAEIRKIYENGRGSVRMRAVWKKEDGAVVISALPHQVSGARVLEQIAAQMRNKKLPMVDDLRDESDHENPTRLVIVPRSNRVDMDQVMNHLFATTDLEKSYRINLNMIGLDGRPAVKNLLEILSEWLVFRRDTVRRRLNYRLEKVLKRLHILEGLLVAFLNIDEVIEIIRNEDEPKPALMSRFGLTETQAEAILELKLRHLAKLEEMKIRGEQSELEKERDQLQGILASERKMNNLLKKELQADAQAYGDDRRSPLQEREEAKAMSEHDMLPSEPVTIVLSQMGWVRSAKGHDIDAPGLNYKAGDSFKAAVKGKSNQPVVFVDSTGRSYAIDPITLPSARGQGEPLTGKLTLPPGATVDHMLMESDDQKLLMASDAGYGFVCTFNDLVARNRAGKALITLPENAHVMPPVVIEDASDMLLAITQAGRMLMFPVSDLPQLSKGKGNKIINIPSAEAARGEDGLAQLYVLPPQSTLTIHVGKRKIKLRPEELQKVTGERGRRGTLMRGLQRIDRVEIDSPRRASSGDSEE
T2 sequence (P20083 whole entry): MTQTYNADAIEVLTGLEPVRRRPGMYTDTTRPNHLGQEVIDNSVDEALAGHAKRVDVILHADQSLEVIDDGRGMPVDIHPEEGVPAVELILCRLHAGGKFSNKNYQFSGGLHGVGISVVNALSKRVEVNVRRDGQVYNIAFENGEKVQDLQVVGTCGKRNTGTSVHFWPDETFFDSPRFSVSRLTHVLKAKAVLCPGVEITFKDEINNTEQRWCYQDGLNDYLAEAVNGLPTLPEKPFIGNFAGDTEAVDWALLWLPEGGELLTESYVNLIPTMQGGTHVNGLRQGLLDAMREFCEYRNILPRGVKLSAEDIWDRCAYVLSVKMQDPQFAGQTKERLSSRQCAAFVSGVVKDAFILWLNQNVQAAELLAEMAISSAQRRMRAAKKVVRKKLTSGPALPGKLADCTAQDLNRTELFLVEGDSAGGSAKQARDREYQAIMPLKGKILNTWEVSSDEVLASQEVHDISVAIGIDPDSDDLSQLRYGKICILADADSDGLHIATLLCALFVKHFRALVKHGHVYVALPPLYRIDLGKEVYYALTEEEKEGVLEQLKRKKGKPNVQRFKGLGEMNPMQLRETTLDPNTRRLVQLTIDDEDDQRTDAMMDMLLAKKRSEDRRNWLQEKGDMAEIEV
Protocol: Topoisomerase IV was purified from E. coli overexpressing strains and the compounds were assayed according to literature conditions (Journal of Biological Chemistry, 1993;268(32):24481). The k-DNA decatenation assay was used. Briefly, reactions were performed in buffer R (40 mM Tris-HCl (pH 7.5), 6 mM MgCl2, 10 mM DTT, 100 mM potassium glutamate, 40 μM ATP, 50 μg/mL bovine serum albumin, 10 mM NaCl). 0.2 μg of kinetoplast DNA (k-DNA; TopoGen, Columbus, Ohio) was incubated with 5 ng of E. coli topoisomerase IV in the presence or absence of test compounds for 10 minutes at 37° C. Subsequently, one-tenth volume of 10×gel loading buffer (0.3% bromophenol blue, 16% Ficoll, 10 mM Na2HPO4) was added, and samples were loaded onto horizontal 0.8% agarose gels prepared with TBE buffer and containing 0.05 μg/mL of ethidium bromide. Electrophoresis was at 70 V for 2 to 4 hours. Gels were then examined by exposure to UV light. The concentration of drug inhibiting 50% of the decantenating activity of Topoisomerase IV is given as an IC50 and recorded in Table 2.

relaxed plasmid pBR322 = assay: DNA intercalation/binding assay; details: pBR322 with calf thymus topoisomerase I, 30 minutes at 37° C.; read-out: Drug Concentration causing 50% Intercalation of DNA
Protocol: Compounds of the present invention were evaluated for their ability to intercalate/bind to DNA, using the procedure described in Nucleic Acids Research, 1987;15(15):6713. Specifically, 0.2 μg of relaxed plasmid pBR322 (Lucent, Ltd., Leicester, UK) was treated with 2 U of calf thymus topoisomerase I (Gibco/BRL, Gaithersburg, Md.) in buffer I (10 mM Tris-HCl (Ph 7.5), 50 mM KCl, 5 mM MgCl2, 1 mM Na2EDTA, 15 μg/mL bovine serum albumin) in the presence or absence of test compounds. Reaction were incubated for 30 minutes at 37° C.; volumes were typically 30 μL. Reactions were terminated by the addition of sodium dodecylsulfate (SDS) to 1% and proteinase K to 0.5 mg/mL final concentrations. After an additional 30 minutes at 37° C., one-tenth volume of 10×concentrated loading buffer (0.3% bromophenol blue, 16% Ficoll, 10 mM Na2HPO4) was added, and samples were loaded onto horizontal 0.8% agarose gels prepared in TAE buffer. Electrophoresis was at 22 V for 14 hours. Gels were then stained by soaking for 1.5 hours in deionized water containing 0.2 μg/mL of ethidium bromide, followed by destaining in deionized water for an additional 1.5 hours. Gels were examined and photographed following exposure to UV light. The concentration of the drug which induced a 50% change in the DNA by intercalation is represented by an intercalation IC50 and is recorded in Table 4.

B. subtilis RB1 = assay: Antibacterial assay, standard microtitration, MIC; format: cell-based; details: Bacillus subtilis, Gram positive, read-out: Minimum Inhibitory Concentrations, B. subtilis RB1
Protocol: (§1) The compounds of the present invention were tested against an assortment of gram negative and gram positive organisms using standard microtitration techniques (Cohen, et al., Antimicrob. Agents Chemother., 1985;28:766; Heifetz, et al. Antimicrob. Agents Chemother., 1974;6:124).

E. coli B90 = assay: Antibacterial assay, standard microtitration, MIC; format: cell-based; details: Escherichia coli, Gram negative, read-out: Minimum Inhibitory Concentrations, E. coli B90
Protocol: as §1

S. aureus 29213 = assay: Antibacterial assay, standard microtitration, MIC; format: cell-based; details: Staphylococcus aureus, Gram positive, read-out: Minimum Inhibitory Concentrations, S. aureus 29213
Protocol: as §1

S. pyogenes C203 = assay: Antibacterial assay, standard microtitration, MIC; format: cell-based; details: Streptococcus pyogenes, Gram positive, read-out: Minimum Inhibitory Concentrations, S. pyogenes C203
Protocol: as §1

E. coli MC4100 = assay: Antibacterial assay, standard microtitration, MIC; format: cell-based; details: Escherichia coli, Gram negative, read-out: Minimum Inhibitory Concentrations, E. coli MC4100
Protocol: as §1

E. coli To1C = assay: Antibacterial assay, standard microtitration, MIC; format: cell-based; details: Escherichia coli, TO1C, read-out: Minimum Inhibitory Concentrations, E. coli To1C
Protocol: as §1

[2] = supercoiling of relaxed pBR322, 30 minutes at 37° C., read-out: DNA Gyrase IC50
[3] = Chinese hamster cells, drug for 3 hours at 37° C., colony formation after 5 days, read-out: 50% Cytotoxic Conc. in CHO cells
[4] = k-DNA decatenation, 10 minutes at 37° C., read-out: Top IV IC50

With Nc1cc2c3c(cccc3c1)C(=O)N(O)C2=O [Example 8, 5-Amino-2-hydroxy-benzo[de]isoquinoline-1,3-dione] the IC50 (E. coli gyrase; [2]) was 7 µM, the IC50 at 3 h [1, 3] was > 500 µM and the IC50 (E. coli topoisomerase IV; [4]) was 65 µM. For the same compound, the IC50 (relaxed plasmid pBR322) was > 100 µM, the MIC (B. subtilis RB1) was 8 µg/mL (≈ 35.1 µM) and the MIC (E. coli B90) was 4 µg/mL (≈ 17.5 µM). For the same compound, the MIC (S. aureus 29213) was 32 µg/mL (≈ 140 µM), the MIC (S. pyogenes C203) was > 64 µg/mL and the MIC (E. coli MC4100) was 8 µg/mL (≈ 35.1 µM).

In the case of Nc1cc2c3c(cccc3c1Cl)C(=O)N(O)C2=O [Example 28, 5-Amino-6-chloro-2-hydroxy-benzo[de]isoquinoline-1,3-dione], the IC50 (E. coli gyrase; [2]) is reported as 20 µM, the IC50 at 3 h [1, 3] is reported as > 250 µM and the IC50 (E. coli topoisomerase IV; [4]) is reported as 7 µM. For the same compound, the IC50 (relaxed plasmid pBR322) was > 100 µM, the MIC (B. subtilis RB1) was 4 µg/mL (≈ 15.2 µM) and the MIC (E. coli B90) was 1 µg/mL (≈ 3.81 µM). The MIC (S. aureus 29213) was 4 µg/mL (≈ 15.2 µM), the MIC (S. pyogenes C203) was > 64 µg/mL and the MIC (E. coli MC4100) was 16 µg/mL (≈ 60.9 µM). The MIC (E. coli To1C) was 1 µg/mL (≈ 3.81 µM).

For COc1cc2c3c(cccc3c1Br)C(=O)N(O)C2=O [Example 32, 6-Bromo-2-hydroxy-5-methoxy-benzo[de]isoquinoline-1,3-dione], the IC50 at 3 h [1, 3] was > 250 µM, the IC50 (relaxed plasmid pBR322) was > 100 µM and the MIC (B. subtilis RB1) was 4 µg/mL (≈ 12.4 µM). For the same compound, the MIC (E. coli B90) was 8 µg/mL (≈ 24.8 µM), the MIC (S. aureus 29213) was 8 µg/mL (≈ 24.8 µM) and the MIC (S. pyogenes C203) was > 64 µg/mL. For the same compound, the MIC (E. coli MC4100) was > 64 µg/mL and the MIC (E. coli To1C) was 4 µg/mL (≈ 12.4 µM).

O=C1c2cc([N+](=O)[O-])cc3cc([N+](=O)[O-])cc(c23)C(=O)N1O [Example 42, 2-Hydroxy-5,8-dinitro-benzo[de]isoquinoline-1,3-dione] gave an IC50 (E. coli gyrase) of 20 µM, an IC50 at 3 h ([1]; drug for 3 hours at 37° C., colony formation after 5 days, read-out: 50% Cytotoxic Conc. in CHO cells) of 160 µM and an IC50 (E. coli topoisomerase IV) of 20 µM. For the same compound, the IC50 (relaxed plasmid pBR322) was > 100 µM, the MIC (B. subtilis RB1) was 16 µg/mL (≈ 52.8 µM) and the MIC (E. coli B90) was 1 µg/mL (≈ 3.3 µM). It also gave an MIC (S. aureus 29213) of 8 µg/mL (≈ 26.4 µM), an MIC (S. pyogenes C203) of 32 µg/mL (≈ 106 µM) and an MIC (E. coli MC4100) of 4 µg/mL (≈ 13.2 µM).

With O=C1c2cccc3c(Br)ccc(c23)C(=O)N1O [Example 4, 6-Bromo-2-hydroxy-benzo[de]isoquinoline-1,3-dione] the IC50 at 3 h [1, 3] was > 250 µM, the MIC (B. subtilis RB1) was 8 µg/mL (≈ 27.4 µM) and the MIC (E. coli B90) was 8 µg/mL (≈ 27.4 µM). For the same compound, the MIC (S. aureus 29213) was 16 µg/mL (≈ 54.8 µM), the MIC (S. pyogenes C203) was > 64 µg/mL and the MIC (E. coli MC4100) was > 64 µg/mL.

With CSc1ccc2c3c(cccc13)C(=O)N(O)C2=O [Example 16, 2-Hydroxy-6-methylthio-benzo[de]isoquinoline-1,3-dione] the IC50 at 3 h [1, 3] was > 250 µM, the IC50 (relaxed plasmid pBR322) was > 100 µM and the MIC (B. subtilis RB1) was 2 µg/mL (≈ 7.71 µM). It also gave an MIC (E. coli B90) of 1 µg/mL (≈ 3.86 µM), an MIC (S. aureus 29213) of 8 µg/mL (≈ 30.9 µM) and an MIC (S. pyogenes C203) of 64 µg/mL (≈ 247 µM). The MIC (E. coli MC4100) was > 64 µg/mL and the MIC (E. coli To1C) was 1 µg/mL (≈ 3.86 µM).

NC1CCN(c2ccc3c4c(cccc24)C(=O)N(O)C3=O)C1 (centres unmarked) [Example 62, 6-(3-Amino-pyrrolidin-1-yl)-2-hydroy-benzo[de]isoquinoline-1,3-dione] gave an IC50 (E. coli gyrase; [2]) of 18 µM, an IC50 at 3 h [1, 3] of 177 µM and an MIC (B. subtilis RB1) of 64 µg/mL (≈ 215 µM). For the same compound, the MIC (E. coli B90) was 32 µg/mL (≈ 108 µM), the MIC (S. aureus 29213) was > 64 µg/mL and the MIC (S. pyogenes C203) was 4 µg/mL (≈ 13.5 µM). The MIC (E. coli MC4100) was > 64 µg/mL and the MIC (E. coli To1C) was 8 µg/mL (≈ 26.9 µM).

In the case of COc1cc2c3c(cccc3c1)C(=O)N(O)C2=O [Example 13, 2-Hydroxy-5-methoxy-benzo[de]isoquinoline-1,3-dione], the IC50 (E. coli gyrase; [2]) is reported as 11 µM, the IC50 at 3 h [1, 3] is reported as > 250 µM and the IC50 (E. coli topoisomerase IV; [4]) is reported as 29 µM. For the same compound, the IC50 (relaxed plasmid pBR322) was > 100 µM, the MIC (B. subtilis RB1) was 1 µg/mL (≈ 4.11 µM) and the MIC (E. coli B90) was 0.13 µg/mL (≈ 0.534 µM). The MIC (S. aureus 29213) was 8 µg/mL (≈ 32.9 µM), the MIC (S. pyogenes C203) was > 64 µg/mL and the MIC (E. coli MC4100) was 0.5 µg/mL (≈ 2.06 µM).

Work on CN1CCN(c2c(Br)cc3c4c(cccc24)C(=O)N(O)C3=O)CC1 [Example 50, 5-Bromo-2-hydroxy-6-(4-methylpiperazin-1-yl)-benzo[de]isoquinoline-1,3-dione] yielded an IC50 (E. coli gyrase; [2]) of 31 µM, an IC50 at 3 h [1, 3] of 88 µM and an IC50 (E. coli topoisomerase IV; [4]) of 97 µM. The MIC (B. subtilis RB1) was 4 µg/mL (≈ 10.3 µM), the MIC (E. coli B90) was 2 µg/mL (≈ 5.13 µM) and the MIC (S. aureus 29213) was 8 µg/mL (≈ 20.5 µM). For the same compound, the MIC (S. pyogenes C203) was 8 µg/mL (≈ 20.5 µM), the MIC (E. coli MC4100) was 32 µg/mL (≈ 82 µM) and the MIC (E. coli To1C) was 2 µg/mL (≈ 5.13 µM).

With CN(C)CCN1C(=O)c2cc([N+](=O)[O-])cc3cc([N+](=O)[O-])cc(c23)C1=O [Ref #1, 5,8-dinitro-2-(2-dimethylaminoethyl)-benzo[de]isoquinoline-1,3-dione, reference compound] the IC50 at 3 h [1] was < 8 µM, the IC50 (relaxed plasmid pBR322) was < 10 µM and the MIC (B. subtilis RB1) was 2 µg/mL (≈ 5.58 µM). The MIC (E. coli B90) was 2 µg/mL (≈ 5.58 µM), the MIC (S. aureus 29213) was 4 µg/mL (≈ 11.2 µM) and the MIC (S. pyogenes C203) was 2 µg/mL (≈ 5.58 µM). It also gave an MIC (E. coli MC4100) of 8 µg/mL (≈ 22.3 µM).
